Experiments:
Assay in all cases: Agar diffusion test (microbiological test)
Type in all cases: cell-based
Conditions in all cases: 100 μl of a 1% solution in abs. ethanol; 48 h incubation at 37° C.
[1] = tested on: Staphylococcus aureus ATCC 9144
Experimental: (§1) Casein soybean flour peptone agar (Merck)
(§2) Casein soybean flour peptone broth (Merck)
Staphylococcus aureus ATCC 9144
(§3) Preparation of the Germ Suspensions
(§4) The test germs are cultivated overnight (about 18 h) at 37° C. in Caso-Broth (5 ml test tubes). The germ count of the overnight cultivation is determined by the spiralometer method and must be between 10^8-10^9 KBE/ml.
(§5) The culture is diluted to about 10^7 KBE/ml with 0.85% NaCl solution, pH 7.2.
(§6) Petri dishes are filled with about 18 ml of sterile nutrient agar which is allowed to solidify.
(§7) 3.5 ml of the germ dilution in 0.85% NaCl are pipetted into 500 ml of still liquid agar which is cooled in a water bath to 47° C. and homogenised.
(§8) 6 ml of the germ-infested agar are evenly distributed on the solidified ground layer. After a drying and storage time of about 24 hours at 4° C. the dishes are ready for the test.
(§9) Drop Amount 100 μl of a 1% solution of the tetraester of formula (104) in abs. ethanol are pipetted into the centre of the dish and are dried for about 30 minutes at room temperature (the substances run into zones of about 20-30 mm).
(§10) Results of the Agar Diffusion Test
(§11) After a 48 h incubation of the agar dishes at 37° C., the growth of the […] in the drop zone is assessed.

[2] = tested on: Corynebacterium xerosis ATCC 373
Experimental: as §1, §2
Corynebacterium xerosis ATCC 373
as §3, §4, §5, §6, §7, §8, §9, §10, §11

[3] = tested on: Escherichia coli NCTC 8196
Experimental: as §1, §2
Escherichia coli NCTC 8196
as §3, §4, §5, §6, §7, §8, §9, §10, §11

CCCCC(CC)COC(=O)C[C@H](NCCN[C@@H](CC(=O)OCC(CC)CCCC)C(=O)OCC(CC)CCCC)C(=O)OCC(CC)CCCC (stereo partly drawn) [[S,S]-Ethylenediaminedisuccinic acid tetraisooctyl ester]
growth in the drop zone, Staphylococcus aureus ATCC 9144 [1]: no inhibition | growth in the drop zone, Corynebacterium xerosis ATCC 373 [2]: inhibition | growth in the drop zone, Escherichia coli NCTC 8196 [3]: no inhibition

CCCCC(CC)COC(=O)CC(NCCNC(CC(=O)OCC(CC)CCCC)C(=O)OCC(CC)CCCC)C(=O)OCC(CC)CCCC (mixture of isomers) [ethylenediaminedisuccinic acid tetra(isooctyl)ester (isomer mixture), [S,S]-/[R,R]-/[R,S]-Ethylenediaminedisuccinic acid tetraisooctyl ester (isomer mixture)]
growth in the drop zone, Staphylococcus aureus ATCC 9144 [1]: no inhibition | growth in the drop zone, Corynebacterium xerosis ATCC 373 [2]: inhibition | growth in the drop zone, Escherichia coli NCTC 8196 [3]: no inhibition

From patent US6369268B1, “Diester amine adducts” (Ciba Specialty Chemicals Corporation, priority 1997, dated 2002)
